Experimental data taken from patent publication US8030478B2, “Method for nucleic acid replication and novel artificial base pairs” (priority 2005, dated 2011).
Where two headings read alike, the source gives them in different places. Marks after values point to notes of the source that are not given here.

How the values were obtained:
[1] = biological target: T1, Klenow fragment lacking exonuclease activity (KF exo−) (Escherichia coli, UniProt P00582, D355A/E357A); type: biochemical, E. coli; details: for Efficiency (Vmax/KM) / Km / Vmax: 37° C.
T1 construct: enzyme solution of the Klenow fragment lacking exonuclease activity (KF exo^−, Amersham USB); purchased Amersham USB
T1 sequence (P00582 324-928 D355A/E357A): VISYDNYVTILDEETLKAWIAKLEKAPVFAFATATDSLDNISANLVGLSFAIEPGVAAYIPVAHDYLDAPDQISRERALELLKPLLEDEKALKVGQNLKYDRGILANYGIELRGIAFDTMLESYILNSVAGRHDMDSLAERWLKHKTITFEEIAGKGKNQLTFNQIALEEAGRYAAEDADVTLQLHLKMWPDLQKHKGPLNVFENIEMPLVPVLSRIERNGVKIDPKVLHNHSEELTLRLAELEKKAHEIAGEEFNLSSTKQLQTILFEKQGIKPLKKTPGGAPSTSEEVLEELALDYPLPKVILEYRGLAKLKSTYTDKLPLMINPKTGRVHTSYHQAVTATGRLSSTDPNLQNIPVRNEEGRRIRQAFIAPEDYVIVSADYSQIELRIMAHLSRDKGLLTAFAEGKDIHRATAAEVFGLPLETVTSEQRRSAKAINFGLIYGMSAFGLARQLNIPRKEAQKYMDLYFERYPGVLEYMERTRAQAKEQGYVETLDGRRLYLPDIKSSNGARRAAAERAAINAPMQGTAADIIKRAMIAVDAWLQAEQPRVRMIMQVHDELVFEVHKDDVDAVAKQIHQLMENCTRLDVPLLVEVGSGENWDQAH
Description: The single nucleotide insertion experiment was performed as described in documents (Non-patent Documents 30-32). A primer (20-mer) labeled with 6-carboxylfluorescein at the 5′-end was annealed with template DNA (35-mer) by heating at 95° C. and slow cooling to 4° C. in 100 mM Tris-HCl (pH 7.5) buffer containing 20 mM MgCl2, 2 mM DTT and 0.1 mg/ml bovine serum albumin. The primer-template duplex solution (10 μM, 5 μl) was mixed with 2 μl enzyme solution of the Klenow fragment lacking exonuclease activity (KF exo^−, Amersham USB). After the mixture was incubated for 2 minutes, each dNTP solution (3 μl) was added to this solution to start the reaction at 37° C. The amount of the enzyme used (5-50 nM), the reaction time (1-35 minutes) and the gradient concentration of each dNTP (0.3-1500 μM) were adjusted to ensure conditions giving 25% or less products. The reaction was stopped with 10 μl stop solution (95% formamide and 20 mM EDTA), and the mixture was immediately heated at 75° C. for 3 minutes. The diluted products were analyzed in an automated ABI377 DNA sequencer equipped with GeneScan software (version 3.0) (Non-patent Document 32). The relative velocity (v0) was calculated by dividing the extent of reaction by the reaction time, and then normalized to the enzyme concentration (20 nM) for the various enzyme concentrations used. Kinetic parameters (KM and Vmax) were obtained from Hanes-Woolf plots of [dNTP]/v0 against [dNTP].
Each parameter was averaged from 3 to 8 data sets.

[2] = biological target: T7 RNA polymerase (Escherichia phage T7, UniProt P00573); details: [α-32P]ATP, natural NTP 1 mM; for Composition of nucleotide incorporated as 5′ neighbor of A: Gp: theoretical [2]
T7 RNA polymerase, sequence (P00573 whole entry): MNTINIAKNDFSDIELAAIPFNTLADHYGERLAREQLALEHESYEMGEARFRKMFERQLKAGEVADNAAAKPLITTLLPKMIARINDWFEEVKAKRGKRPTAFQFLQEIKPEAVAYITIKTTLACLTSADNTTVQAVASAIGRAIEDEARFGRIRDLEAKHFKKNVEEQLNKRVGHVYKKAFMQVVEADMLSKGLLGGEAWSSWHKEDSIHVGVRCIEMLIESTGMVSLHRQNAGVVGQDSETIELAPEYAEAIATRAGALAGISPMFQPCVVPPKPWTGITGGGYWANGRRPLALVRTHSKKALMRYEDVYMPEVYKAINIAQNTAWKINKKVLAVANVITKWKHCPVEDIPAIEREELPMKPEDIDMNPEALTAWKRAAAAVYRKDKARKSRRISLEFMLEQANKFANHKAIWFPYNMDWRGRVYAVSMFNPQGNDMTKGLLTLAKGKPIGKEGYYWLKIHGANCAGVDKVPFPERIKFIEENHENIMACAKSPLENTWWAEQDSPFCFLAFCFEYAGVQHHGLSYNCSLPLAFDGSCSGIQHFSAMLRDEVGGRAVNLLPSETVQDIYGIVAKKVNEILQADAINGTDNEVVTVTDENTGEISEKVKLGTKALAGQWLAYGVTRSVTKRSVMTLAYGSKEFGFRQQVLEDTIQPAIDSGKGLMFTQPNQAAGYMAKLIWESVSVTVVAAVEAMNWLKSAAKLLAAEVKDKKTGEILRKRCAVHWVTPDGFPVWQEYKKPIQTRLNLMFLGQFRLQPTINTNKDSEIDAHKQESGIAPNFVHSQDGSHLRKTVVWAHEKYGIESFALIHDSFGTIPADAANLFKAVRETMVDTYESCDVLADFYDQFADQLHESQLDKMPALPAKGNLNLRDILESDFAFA
Description: Transcription (20 μl) was accomplished in 40 mM Tris-HCl buffer (pH 8.0) containing 24 mM MgCl2, 2 mM spermidine, 5 mM DTT, 0.01% Triton X-100, 1-3 mM each natural NTP, 0-3 mM Pa′TP, 0-3 mM DsTP, 10 mM GMP, 2 μM template DNA (for 17-mer transcript synthesis) or 0.5 μM template DNA (for tRNA transcript synthesis), and 2.5 units/μl T7 RNA polymerase (TAKARA). […] For nucleotide composition analysis in transcripts (Non-patent Documents 17 and 33), the transcripts were internally labeled with 2 μCi [α-^32P]UTP or [α-^32P]ATP (Amersham). After the transcription, the products were digested with 0.75 units of RNase T2 at 37° C. for 2 hours in 10 μl of 15 mM sodium acetate buffer (pH 4.5). For 17-mer analysis, 0.05 A260 units of E. coli tRNA (Sigma) was added to the digestion reaction solution. The digestion products were analyzed by 2D-TLC (HPTLC plate, 100×100 mm, Merck). The developing solvents used for the first and second dimensions were isobutyric acid-ammonia-water (66:1:33 v/v/v) and isopropyl alcohol-HCl-water (70:15:15 v/v/v or 75:15:10 v/v/v for Pa′ transcripts), respectively. Spots of the labeled nucleotides on the TLC plate were analyzed with a bio-imaging analyzer.
The internally ^32P-labeled transcripts were digested with Rnase T2, and the resulting labeled nucleoside 3′-monophosphates were analyzed by 2D thin-layer chromatography (2D-TLC).

[3] = Entry 1, template temp35Ds-3, Pa 1 mM, theoretical [0]
[4] = Entry 1, template temp35Ds-3, Pa 1 mM, theoretical [1]
[5] = Entry 2, template temp35Ds-3, Pa 3 mM, theoretical [0]
[6] = Entry 2, template temp35Ds-3, Pa 3 mM, theoretical [1]
[7] = Entry 3, template temp35A-3, Pa 1 mM, theoretical [0]
[8] = Entry 3, template temp35A-3, Pa 1 mM, theoretical [1]
[9] = Entry 4, template temp35A-3, Pa 3 mM, theoretical [0]
[10] = Entry 4, template temp35A-3, Pa 3 mM, theoretical [1]
[11] = Entry 5, template temp35G-3, Pa 1 mM, theoretical [0]
[12] = Entry 5, template temp35G-3, Pa 1 mM, theoretical [1]
[13] = Entry 6, template temp35G-3, Pa 3 mM, theoretical [0]
[14] = Entry 6, template temp35G-3, Pa 3 mM, theoretical [1]

## Cc1cn([C@H]2C[C@H](O)[C@@H](COP(=O)(O)OP(=O)(O)OP(=O)(O)O)O2)c(=O)[nH]c1=O [dTTP, reference compound]
[1]; template (N) = A, temp35N-1
  Efficiency (Vmax/KM): 4.0 × 10^6 % min^−1M^−1
  Km: 0.7 µM
  Vmax: 2.8 % min^−1
[1]; template (N) = Ds, temp35N-1
  Efficiency (Vmax/KM): 1.9 × 10^3 % min^−1M^−1
  Km: 220 µM
  Vmax: 0.41 % min^−1
[1]; template (N) = G, temp35N-1
  Efficiency (Vmax/KM): 2.1 × 10^3 % min^−1M^−1
  Km: 140 µM
  Vmax: 0.29 % min^−1
[1]; template (N) = Pa, temp35N-2
  Efficiency (Vmax/KM): 1.1 × 10^2 % min^−1M^−1
  Km: 880 µM
  Vmax: 0.097 % min^−1
[1]; template (N) = Pa′, temp35N-2
  Efficiency (Vmax/KM): 1.0 × 10^2 % min^−1M^−1
  Km: 1400 µM
  Vmax: 0.14 % min^−1

## O=Cc1cccn1[C@@H]1O[C@H](COP(=O)(O)OP(=O)(O)OP(=O)(O)O)[C@@H](O)[C@H]1O [PaTP, 1-(β-D-Ribofuranosyl)pyrrole-2-carbaldehyde 5′-triphosphate]
[2]; [3]
  Composition of nucleotide incorporated as 5′ neighbor of A: Cp: 0.01 [0]
  Composition of nucleotide incorporated as 5′ neighbor of A: Up: 0.02 [0]
[2]; [4]
  Composition of nucleotide incorporated as 5′ neighbor of A: Ap: 1.03^c [1]^d
  Composition of nucleotide incorporated as 5′ neighbor of A: Np (Pap): 0.97 [1]
[2]; Entry 1, template temp35Ds-3, Pa 1 mM
  Composition of nucleotide incorporated as 5′ neighbor of A: Gp: 1.97 [2]
[2]; [5]
  Composition of nucleotide incorporated as 5′ neighbor of A: Cp: 0.01 [0]
  Composition of nucleotide incorporated as 5′ neighbor of A: Up: 0.01 [0]
[2]; [6]
  Composition of nucleotide incorporated as 5′ neighbor of A: Ap: 1.01 [1]
  Composition of nucleotide incorporated as 5′ neighbor of A: Np (Pap): 1.00 [1]
[2]; Entry 2, template temp35Ds-3, Pa 3 mM
  Composition of nucleotide incorporated as 5′ neighbor of A: Gp: 1.96 [2]
[2]; [7]
  Composition of nucleotide incorporated as 5′ neighbor of A: Cp: n.d.^f [0]
  Composition of nucleotide incorporated as 5′ neighbor of A: Np (Pap): n.d. [0]
[2]; [8]
  Composition of nucleotide incorporated as 5′ neighbor of A: Ap: 0.99 [1]
  Composition of nucleotide incorporated as 5′ neighbor of A: Up: 1.04 [1]
[2]; Entry 3, template temp35A-3, Pa 1 mM
  Composition of nucleotide incorporated as 5′ neighbor of A: Gp: 1.96 [2]
[2]; [9]
  Composition of nucleotide incorporated as 5′ neighbor of A: Cp: n.d. [0]
  Composition of nucleotide incorporated as 5′ neighbor of A: Np (Pap): n.d. [0]
[2]; [10]
  Composition of nucleotide incorporated as 5′ neighbor of A: Ap: 0.99 [1]
  Composition of nucleotide incorporated as 5′ neighbor of A: Up: 1.03 [1]
[2]; Entry 4, template temp35A-3, Pa 3 mM
  Composition of nucleotide incorporated as 5′ neighbor of A: Gp: 1.97 [2]
[2]; [11]
  Composition of nucleotide incorporated as 5′ neighbor of A: Np (Pap): n.d. [0]
  Composition of nucleotide incorporated as 5′ neighbor of A: Up: 0.01 [0]
[2]; [12]
  Composition of nucleotide incorporated as 5′ neighbor of A: Ap: 1.02 [1]
  Composition of nucleotide incorporated as 5′ neighbor of A: Cp: 1.01 [1]
[2]; Entry 5, template temp35G-3, Pa 1 mM
  Composition of nucleotide incorporated as 5′ neighbor of A: Gp: 1.96 [2]
[2]; [13]
  Composition of nucleotide incorporated as 5′ neighbor of A: Np (Pap): n.d. [0]
  Composition of nucleotide incorporated as 5′ neighbor of A: Up: 0.01 [0]
[2]; [14]
  Composition of nucleotide incorporated as 5′ neighbor of A: Ap: 1.01 [1]
  Composition of nucleotide incorporated as 5′ neighbor of A: Cp: 1.00 [1]
[2]; Entry 6, template temp35G-3, Pa 3 mM
  Composition of nucleotide incorporated as 5′ neighbor of A: Gp: 1.98 [2]

## Nc1nc2c(ncn2[C@H]2C[C@H](O)[C@@H](COP(=O)(O)OP(=O)(O)OP(=O)(O)O)O2)c(=O)[nH]1 [dGTP, reference compound]
[1]; template (N) = C, temp35N-2
  Efficiency (Vmax/KM): 7.0 × 10^6 % min^−1M^−1
  Km: 2.3 µM
  Vmax: 16 % min^−1
[1]; template (N) = Ds, temp35N-1, 20 minutes, 1500 μM nucleoside 5′-triphosphate, 50 nM enzyme
  inserted products (KM, Vmax n.d.): n.d.^c (Minimal inserted products (<2%) were detected after incubation for 20 minutes with 1500 μM nucleoside 5′-triphosphate and 50 nM enzyme.)
[1]; template (N) = Pa, temp35N-2
  Efficiency (Vmax/KM): 8.8 × 10^2 % min^−1M^−1
  Km: 480 µM
  Vmax: 0.42 % min^−1
[1]; template (N) = Pa′, temp35N-2
  Efficiency (Vmax/KM): 5.5 × 10^2 % min^−1M^−1
  Km: 800 µM
  Vmax: 0.44 % min^−1
[1]; template (N) = T, temp35N-2
  Efficiency (Vmax/KM): 2.9 × 10^3 % min^−1M^−1
  Km: 420 µM
  Vmax: 12 % min^−1

## CC#Cc1cc(C=O)n([C@H]2C[C@H](O)[C@@H](COP(=O)(O)OP(=O)(O)OP(=O)(O)O)O2)c1 [dPa′TP]
[1]; KF exo−, template Ds
  efficiency of incorporation opposite Ds in the template relative to that of dPaTP: 3.9 fold
[1]; template (N) = A, temp35N-1
  Efficiency (Vmax/KM): 1.8 × 10^5 % min^−1M^−1
  Km: 110 µM
  Vmax: 20 % min^−1
[1]; template (N) = C, temp35N-1
  Efficiency (Vmax/KM): 7.4 × 10^2 % min^−1M^−1
  Km: 80 µM
  Vmax: 0.059 % min^−1
[1]; template (N) = Ds, temp35N-1
  Efficiency (Vmax/KM): 2.6 × 10^5 % min^−1M^−1
  Km: 82 µM
  Vmax: 21 % min^−1
[1]; template (N) = G, temp35N-1
  Efficiency (Vmax/KM): 1.6 × 10^3 % min^−1M^−1
  Km: 80 µM
  Vmax: 0.13 % min^−1
[1]; template (N) = Pa′, temp35N-2
  Efficiency (Vmax/KM): 4.1 × 10^4 % min^−1M^−1
  Km: 190 µM
  Vmax: 7.8 % min^−1
[1]; template (N) = T, temp35N-1
  Efficiency (Vmax/KM): 1.6 × 10^3 % min^−1M^−1
  Km: 120 µM
  Vmax: 0.19 % min^−1
